Assay results reported in the Kinase Knowledgebase extract (Sharma et al. 2016).

How the values were obtained:
Experiment in all cases: Enzyme Assay
[1] = target: PIK3CA (human) (UniProt P42336)
[2] = target: PIK3CG (human) (UniProt P48736)
[3] = target: PIK3CD (Human) (UniProt O00329)
[4] = target: PIK3CB (Human) (UniProt P42338)
Sequence of PIK3CB (Human) (P42338 whole entry, looked up): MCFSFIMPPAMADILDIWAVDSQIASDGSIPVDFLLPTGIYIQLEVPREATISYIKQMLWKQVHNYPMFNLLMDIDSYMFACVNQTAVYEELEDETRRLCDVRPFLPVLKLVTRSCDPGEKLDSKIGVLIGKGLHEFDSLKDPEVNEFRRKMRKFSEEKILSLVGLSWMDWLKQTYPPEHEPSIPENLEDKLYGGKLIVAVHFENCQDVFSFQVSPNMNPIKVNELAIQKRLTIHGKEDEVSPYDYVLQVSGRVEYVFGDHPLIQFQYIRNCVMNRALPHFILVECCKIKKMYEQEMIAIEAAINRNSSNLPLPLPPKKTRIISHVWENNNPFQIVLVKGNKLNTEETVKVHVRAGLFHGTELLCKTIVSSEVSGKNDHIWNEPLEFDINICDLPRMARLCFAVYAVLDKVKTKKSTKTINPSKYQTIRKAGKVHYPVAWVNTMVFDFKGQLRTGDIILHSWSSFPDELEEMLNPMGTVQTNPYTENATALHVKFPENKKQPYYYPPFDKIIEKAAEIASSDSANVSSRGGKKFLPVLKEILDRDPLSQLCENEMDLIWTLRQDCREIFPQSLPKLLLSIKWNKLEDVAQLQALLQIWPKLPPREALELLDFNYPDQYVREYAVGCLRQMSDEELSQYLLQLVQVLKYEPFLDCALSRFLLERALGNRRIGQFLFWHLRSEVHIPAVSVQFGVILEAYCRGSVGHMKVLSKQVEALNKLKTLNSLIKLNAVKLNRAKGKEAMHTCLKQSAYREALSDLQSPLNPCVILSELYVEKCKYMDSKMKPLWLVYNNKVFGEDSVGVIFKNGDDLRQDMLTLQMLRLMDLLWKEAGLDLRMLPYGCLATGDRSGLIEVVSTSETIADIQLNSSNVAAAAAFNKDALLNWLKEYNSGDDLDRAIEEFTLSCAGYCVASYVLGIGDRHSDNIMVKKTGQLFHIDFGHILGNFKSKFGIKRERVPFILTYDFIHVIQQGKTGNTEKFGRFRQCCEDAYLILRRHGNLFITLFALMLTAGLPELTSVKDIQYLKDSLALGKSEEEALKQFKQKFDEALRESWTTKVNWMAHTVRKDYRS

Sequence of PIK3CD (Human) (O00329 whole entry, looked up): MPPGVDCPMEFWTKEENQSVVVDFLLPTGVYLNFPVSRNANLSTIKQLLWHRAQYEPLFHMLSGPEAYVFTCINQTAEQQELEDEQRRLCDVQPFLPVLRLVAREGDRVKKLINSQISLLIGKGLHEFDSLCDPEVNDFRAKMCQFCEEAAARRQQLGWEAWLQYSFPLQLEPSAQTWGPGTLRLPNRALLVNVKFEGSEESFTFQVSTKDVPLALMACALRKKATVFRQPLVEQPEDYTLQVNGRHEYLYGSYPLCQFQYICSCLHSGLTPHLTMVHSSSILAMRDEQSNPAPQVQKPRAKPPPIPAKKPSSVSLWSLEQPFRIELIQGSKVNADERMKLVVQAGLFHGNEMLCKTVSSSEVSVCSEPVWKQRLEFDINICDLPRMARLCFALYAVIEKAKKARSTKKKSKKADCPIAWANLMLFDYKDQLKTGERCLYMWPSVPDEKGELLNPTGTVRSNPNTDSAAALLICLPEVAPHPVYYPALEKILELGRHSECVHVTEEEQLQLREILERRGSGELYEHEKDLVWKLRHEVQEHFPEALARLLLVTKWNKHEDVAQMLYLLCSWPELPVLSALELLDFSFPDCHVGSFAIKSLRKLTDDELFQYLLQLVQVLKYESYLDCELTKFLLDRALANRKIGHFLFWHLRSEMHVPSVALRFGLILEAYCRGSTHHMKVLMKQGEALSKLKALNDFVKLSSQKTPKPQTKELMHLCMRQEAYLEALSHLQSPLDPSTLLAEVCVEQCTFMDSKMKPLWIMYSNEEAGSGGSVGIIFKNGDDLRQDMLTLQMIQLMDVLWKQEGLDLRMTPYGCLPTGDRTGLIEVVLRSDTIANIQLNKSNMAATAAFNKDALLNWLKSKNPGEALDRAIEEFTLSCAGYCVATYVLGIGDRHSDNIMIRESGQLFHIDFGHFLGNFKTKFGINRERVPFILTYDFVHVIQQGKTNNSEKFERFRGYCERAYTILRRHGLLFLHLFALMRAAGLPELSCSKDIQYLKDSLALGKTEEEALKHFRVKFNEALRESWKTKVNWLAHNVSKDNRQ
Sequence of PIK3CG (human) (P48736 whole entry, looked up): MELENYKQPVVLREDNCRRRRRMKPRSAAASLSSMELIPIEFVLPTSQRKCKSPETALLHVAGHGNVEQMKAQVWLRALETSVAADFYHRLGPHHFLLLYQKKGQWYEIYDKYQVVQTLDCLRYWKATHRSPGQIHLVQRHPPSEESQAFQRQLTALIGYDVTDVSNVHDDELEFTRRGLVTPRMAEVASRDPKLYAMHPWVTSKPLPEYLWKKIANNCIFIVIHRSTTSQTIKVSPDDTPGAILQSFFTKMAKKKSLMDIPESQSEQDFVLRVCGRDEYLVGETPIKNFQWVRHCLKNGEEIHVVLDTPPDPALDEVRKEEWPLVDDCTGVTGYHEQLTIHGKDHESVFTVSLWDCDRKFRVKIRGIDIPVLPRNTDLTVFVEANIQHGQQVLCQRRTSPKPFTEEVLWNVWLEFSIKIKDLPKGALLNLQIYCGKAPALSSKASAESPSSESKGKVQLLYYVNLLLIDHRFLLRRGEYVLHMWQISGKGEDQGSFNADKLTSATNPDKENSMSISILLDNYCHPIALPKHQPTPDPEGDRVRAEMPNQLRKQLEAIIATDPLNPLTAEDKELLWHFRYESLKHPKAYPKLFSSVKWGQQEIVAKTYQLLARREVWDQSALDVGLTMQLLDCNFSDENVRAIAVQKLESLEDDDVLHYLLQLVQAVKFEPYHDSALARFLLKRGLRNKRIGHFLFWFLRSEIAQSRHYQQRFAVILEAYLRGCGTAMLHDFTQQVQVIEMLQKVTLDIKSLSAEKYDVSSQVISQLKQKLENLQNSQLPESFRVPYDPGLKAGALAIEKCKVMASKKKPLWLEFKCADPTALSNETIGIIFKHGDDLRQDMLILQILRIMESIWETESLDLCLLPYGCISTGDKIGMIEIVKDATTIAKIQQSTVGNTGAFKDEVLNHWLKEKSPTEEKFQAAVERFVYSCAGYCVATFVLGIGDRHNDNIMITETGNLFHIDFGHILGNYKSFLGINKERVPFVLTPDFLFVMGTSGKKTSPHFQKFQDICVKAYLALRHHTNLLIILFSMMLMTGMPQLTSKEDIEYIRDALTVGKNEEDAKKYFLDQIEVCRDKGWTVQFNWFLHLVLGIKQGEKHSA
Sequence of PIK3CA (human) (P42336 whole entry, looked up): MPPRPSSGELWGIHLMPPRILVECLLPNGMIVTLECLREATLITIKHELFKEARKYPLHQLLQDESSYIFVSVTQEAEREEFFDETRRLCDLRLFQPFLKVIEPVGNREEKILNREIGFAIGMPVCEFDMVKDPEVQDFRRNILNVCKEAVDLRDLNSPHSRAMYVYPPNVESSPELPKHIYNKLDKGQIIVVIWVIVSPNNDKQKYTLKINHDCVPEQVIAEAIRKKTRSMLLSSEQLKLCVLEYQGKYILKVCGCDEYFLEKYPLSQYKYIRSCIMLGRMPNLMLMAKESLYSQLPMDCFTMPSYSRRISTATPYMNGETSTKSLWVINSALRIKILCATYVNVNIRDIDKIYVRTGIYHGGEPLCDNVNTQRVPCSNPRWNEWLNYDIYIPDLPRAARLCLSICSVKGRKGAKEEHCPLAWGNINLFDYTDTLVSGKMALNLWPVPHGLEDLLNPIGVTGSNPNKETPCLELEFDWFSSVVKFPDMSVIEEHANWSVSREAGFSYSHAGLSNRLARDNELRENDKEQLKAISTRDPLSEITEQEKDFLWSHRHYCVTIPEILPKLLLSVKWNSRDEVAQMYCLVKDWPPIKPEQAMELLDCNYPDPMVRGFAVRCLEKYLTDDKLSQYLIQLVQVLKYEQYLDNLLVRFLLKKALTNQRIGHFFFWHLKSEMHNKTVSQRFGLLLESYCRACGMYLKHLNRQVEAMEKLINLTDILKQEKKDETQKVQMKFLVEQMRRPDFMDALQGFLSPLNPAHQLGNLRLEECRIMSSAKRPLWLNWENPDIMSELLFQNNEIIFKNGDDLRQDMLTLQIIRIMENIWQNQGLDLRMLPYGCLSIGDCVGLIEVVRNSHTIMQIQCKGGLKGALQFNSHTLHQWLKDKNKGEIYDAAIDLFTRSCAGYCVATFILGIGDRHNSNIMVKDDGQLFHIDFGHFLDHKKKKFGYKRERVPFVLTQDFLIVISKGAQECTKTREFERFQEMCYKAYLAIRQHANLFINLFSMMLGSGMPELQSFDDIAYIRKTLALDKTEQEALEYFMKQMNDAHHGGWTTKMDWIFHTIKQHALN

Ki [1] [nM] | Ki [2] [nM] | Ki [3] [nM] | Ki [4] [nM] | SMILES
1 | 3 | 3 | 14 | CC1(C)OCCc2c1sc1c(N3CCOCC3)nc(-c3cnc(N)nc3)nc21
– | 7 | 7 | 27 | COC1(c2sc3c(N4CCOCC4)nc(-c4cnc(N)nc4)nc3c2C)COC1
1 | 5 | 9 | 19 | CC1(C)COC1c1cc2nc(-c3cnc(N)nc3)nc(N3CCOCC3)c2s1 (centres undefined)
– | 4 | 2 | 21 | COC(C)(C)c1cc2nc(-c3cnc(N)nc3)nc(N3CCOCC3)c2s1
